# Values of other authors, collected in patent publication US20230158012A1, “ORAL LIQUID FORMULATIONS OF LENVATINIB” (SHILPA MEDICARE LIMITED, priority 2020, published 2023).
# Conditions: 5% w/w aqueous solution or suspension
row,Structure (SMILES),pH value
1,O=C1O[C@H](CO)[C@@H](O)[C@H](O)[C@H]1O [Gluconolactone],2.40
2,O=P([O-])([O-])O.[K+].[K+] [dipotassium hydrogenphosphate],9.11
3,[O]=[Mg] [magnesium oxide],10.63
4,[Na+].[OH-] [sodium hydroxide],13.56

# Next, values leading:
row,pH value,Structure (SMILES)
1,9.26,O=P([O-])([O-])O.[Na+].[Na+] [disodium hydrogenphosphate]
2,6.17,NCC(=O)O [glycine]
3,8.46,CC(=O)[O-].[Na+] [sodium acetate]
4,11.45,O=C([O-])[O-].[Na+].[Na+] [sodium carbonate]
5,8.22,O=C([O-])CC(O)(CC(=O)[O-])C(=O)[O-].[Na+].[Na+].[Na+] [sodium citrate]
6,8.15,O=C([O-])O.[Na+] [sodium hydrogencarbonate]
